Assay results as given in patent publication US20220144850A1, “INDOLO HEPTAMYL OXIME ANALOGUE AS PARP INHIBITOR” (Chia Tai Tianqing Pharmaceutical Group Co., Ltd., priority 2019, published 2022).

Key:
[1] = Metabolic stability in liver microsomes, mouse; assay type: in vitro ADME; conditions: Mouse liver microsomes 0.5 mg/mL, 1 μM compound, NADPH, 37° C.
Method: Experimental Example 7. Metabolic Stability in Liver Microsomes
Experimental objective: to test the metabolic stability of test compounds in liver microsomes of three species.
Experimental method: 1 μM test compound and a microsome (0.5 mg/mL) were incubated at 37° C. in the presence of an NADPH regeneration system; positive controls were testosterone (3A4 substrate), propylamine propiophenone (2D6 substrate) and diclofenac (2C9 substrate), and also at 37° C., a positive control was incubated with a microsome (0.5 mg/mL) in the presence of an NADPH regenerating system; the reaction was stopped by direct mixing of the sample with cold acetonitrile containing an internal standard at various time points (0, 5, 10, 20, 30 and 60 min); the compound and microsome were incubated for 60 min in the absence of an NADPH regenerating system; one parallel (n=1) was set at each time point; the samples were analyzed by LC/MS/MS; the concentration of the compound was characterized by the ratio of the analyte peak area to the internal standard peak area.

[2] = system: BRCA-wild type MDA-MB-231 cells; assay: Anti-proliferation experiment on MDA-MB-231 CTG cells; assay type: cell-based; conditions: Homo sapiens, MDA-MB-231, 72 h; 3 days incubation, CellTiter-Glo
Method: Experimental Example 3: Anti-Proliferation Experiment on MDA-MB-231 CTG Cells
Experimental materials: test compounds; R DMEM medium; fetal bovine serum; penicillin/streptomycin antibiotic; MDA-MB-231 cell line; Envision multi-label analyzer.
MDA-MB-231 cells were seeded in a white 96-well plate by adding 80 μL of cell suspension (containing 5000 MDA-MB-231 cells) to each well. The cell plate was incubated in a CO2 incubator overnight.
Eight concentration points were set for each compound, test compounds were serially 3-fold diluted to the 8th concentration with a multichannel pipette, i.e. from 2 mM to 920 nM, and a duplicate well experiment was performed. 78 μL of medium was added to a intermediate plate, 2 μL of each of serially diluted compounds was transferred to corresponding wells of the intermediate plate, and after mixing, the mixture was transferred to the cell plate at 20 μL per well. The cell plate was incubated in a CO2 incubator for 3 days. Another cell plate was provided for reading signal values on the day of compound addition and these signal values were used as Max values in data analysis. Promega CellTiter-Glo was added to this cell plate at 25 μL per well and the luminescence signals were stabilized by incubation for 10 min at room temperature. Readings were taken using a PerkinElmer Envision multi-marker analyzer.
Promega CellTiter-Glo was added to the cell plate at 25 μL per well and the luminescence signals were stabilized by incubation for 10 min at room temperature. Readings were taken using a PerkinElmer Envision multi-marker analyzer.
Data analysis: the original data was converted to inhibition using the equation (sample−Min)/(Max−Min)×100%, and the IC50 value was then curve fitted using four parameters (obtained from the “log(inhibitor) vs. response-variable slope” model in GraphPad Prism). Table 1 provides the inhibitory activity of the compounds disclosed herein against MDA-MB-231 cell proliferation.

PARP1 = target: T1, PARP1 (Homo sapiens, UniProt P09874); assay: PARP-1 enzymatic experiment (HT Universal Chemiluminescent PARP Assay kit); assay type: biochemical; conditions: chemiluminescence
T1 construct: purchased TREVIGEN
Method: Experimental Example 1: PARP-1 Enzymatic Experiment
Experimental materials: test compounds; HT Universal Chemiluminescent PARP Assay kit (purchased from TREVIGEN); PBS (purchased from Wisent); Triton X-100 (purchased from Macklin); Envision multi-marker analyzer (PerkinElmer).
(I) Preparation of Reagents:
• 1. Washing solution: Triton X-100 was added to 1-fold PBS, and the final concentration of Triton X-100 was 0.1%. • 2. 1-fold PARP buffer: the 20-fold PARP buffer in the kit was subjected to 20-fold dilution with water to prepare a 1-fold PARP buffer. This buffer was used to prepare the compound, enzyme solution and substrate solution. • 3. 1-fold Strep-Diluent solution: the 10-fold Strep-diluent in the kit was subjected to 10-fold dilution with water to prepare a 1-fold Strep-diluent solution.
(II) Preparation of Test Compounds:
Test compounds were serially 5-fold diluted to the 8th concentration with a multichannel pipette, i.e. from 200 μM to 2.56 nM, with the DMSO concentration being 100%. 2 μL of each of the inhibitors at various concentration gradients was added to a compound intermediate plate, and 38 μL of the 1-fold PARP buffer was then added; the two were mixed well for use, and the DMSO concentration was 5%.
(III) Experimental Method:
• a) The 1-fold PARP buffer was added to a test plate at 50 μL per well and incubated at 25° C. for 30 min. • b) After the incubation was completed, the liquid in the test plate was discarded, and each of the compounds at various concentration gradients was pipetted from the compound intermediate plate and added into the test plate at 10 μL per well. A duplicate-well experiment was performed. • c) The test plate was added with the enzyme solution (0.5 IU) at 15 μL per well. The compound and enzyme were incubated together at 25° C. for 10 min. • d) After the incubation was completed, 25 μL of the 1-fold PARP Cocktail (comprising 2.5 μL of 10-fold PARP Cocktail, 2.5 μL of 10-fold Activated DNA and 20 μL of 1-fold PARP buffer) was added to each well of the test plate. The test plate was incubated at 25° C. for 1 h. The final concentration of the compound was 2 μM to 0.0256 nM, and the DMSO concentration was […]. • e) After the incubation was completed, the test plate was washed twice with 200 μL of washing solution per well and then washed twice with 200 μL of PBS per well. • f) Strep-HRP in the kit was subjected to 500-fold dilution with the 1-fold Strep-Diluent solution, added to the test plate at 50 μL per well, and then incubated at 25° C. for 1 h. • g) After the incubation was completed, the test plate was washed twice with 200 μL of washing solution per well and then washed twice with 200 μL of PBS per well.
PeroxyGlow A and B in the kit were mixed at ratio of 1:1, and the mixed solution was added to the test plate at 100 μL per well. Chemiluminescence was immediately read using a PerkinElmer Envision multi-marker analyzer with an integration time of 0.5 s.
Data analysis: the original data was converted to inhibition using the equation (sample−Min)/(Max−Min)×[…], and the IC50 value was then curve filled using four parameters (obtained from the “log(inhibitor) vs. response-variable slope” model in GraphPad Prism).

T1 sequence (P09874 whole entry): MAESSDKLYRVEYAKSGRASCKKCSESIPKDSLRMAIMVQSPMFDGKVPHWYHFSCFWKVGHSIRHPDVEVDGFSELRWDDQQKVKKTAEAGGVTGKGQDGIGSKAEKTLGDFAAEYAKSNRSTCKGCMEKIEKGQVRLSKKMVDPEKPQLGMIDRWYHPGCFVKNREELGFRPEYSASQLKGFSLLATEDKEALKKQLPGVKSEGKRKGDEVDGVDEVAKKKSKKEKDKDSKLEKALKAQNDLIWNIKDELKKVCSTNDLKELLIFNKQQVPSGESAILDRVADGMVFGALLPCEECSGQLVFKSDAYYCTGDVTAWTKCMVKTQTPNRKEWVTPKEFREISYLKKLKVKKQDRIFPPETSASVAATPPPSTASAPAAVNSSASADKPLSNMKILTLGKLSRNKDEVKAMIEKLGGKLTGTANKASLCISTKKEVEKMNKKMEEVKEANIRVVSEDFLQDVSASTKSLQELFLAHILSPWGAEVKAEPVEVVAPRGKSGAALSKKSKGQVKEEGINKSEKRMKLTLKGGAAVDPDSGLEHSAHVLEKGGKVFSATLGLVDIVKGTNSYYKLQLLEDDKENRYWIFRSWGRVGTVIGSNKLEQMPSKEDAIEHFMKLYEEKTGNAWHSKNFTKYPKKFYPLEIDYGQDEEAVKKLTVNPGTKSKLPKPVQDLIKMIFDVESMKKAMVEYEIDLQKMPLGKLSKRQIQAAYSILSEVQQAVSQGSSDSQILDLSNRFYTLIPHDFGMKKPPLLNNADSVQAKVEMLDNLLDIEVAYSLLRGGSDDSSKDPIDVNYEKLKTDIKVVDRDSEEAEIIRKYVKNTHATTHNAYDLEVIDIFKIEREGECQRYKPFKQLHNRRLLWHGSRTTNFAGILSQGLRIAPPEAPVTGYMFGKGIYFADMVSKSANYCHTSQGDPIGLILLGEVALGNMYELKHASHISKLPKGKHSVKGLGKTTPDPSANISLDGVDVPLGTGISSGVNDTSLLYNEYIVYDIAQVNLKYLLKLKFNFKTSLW

Row | Compound | Residual content after 60 min of incubation [1] [%] | IC50 [2] [nM] | IC50 (PARP1) [nM]
1 | O=C1NOCc2c(-c3ccc(C4CCCN4)cc3)[nH]c3cc(F)cc1c23 (single isomer, unassigned) [Example 24_A] | 52.3 | > 10000 | 2
2 | CC1(c2ccc(-c3[nH]c4cc(F)cc5c4c3CONC5=O)cc2F)CCCN1 (single isomer, unassigned) [Example 26_A] | 57.7 | > 10000 | 3.4
3 | CC1(c2ccc(-c3[nH]c4cccc5c4c3CONC5=O)cc2)CCCN1 (stereo not drawn) [Example 6_A] | 45.6 | > 10000 | 2.8
4 | O=C1NOCc2c(-c3ccc(C4CCCN4)c(F)c3)[nH]c3cccc1c23 (stereo not drawn) [Example 11_A] | 57.1 | > 10000 | 3.6
5 | CC1(c2ccc(-c3[nH]c4cc(F)cc5c4c3CONC5=O)cc2)CCCN1 (stereo not drawn) [Example 25_A] | 40.7 | > 10000 | 2.3
